For assay [1], the system named is platelet aggregation induced by U-46619 (stable analog of TXA2). As to the kind of experiment: Inhibition of platelet aggregation induced by U-46619 (Test (1)). It counts as cell-based, guinea pig (male Hartley). Conditions: Cavia porcellus; guinea pig PRP, platelet count 500,000/μl; compound added 2 minutes before U-46619. As for the experimental part: (1) Test Method for the Inhibition of Platelet Aggregation Induced by U-46619
Using a plastic syringe containing 1 volume of 3.8% sodium citrate aqueous solution, 9 volumes of blood was collected from the abdominal aorta of a male Hartley guinea pig of about 800 g in body weight. Platelet rich plasma (PRP) was obtained by subjecting the blood to 10 minutes of centrifugation at 270×g, and the remaining blood was further centrifuged at 1,100×g for 10 minutes to give platelet poor plasma (PPP). The PRP was diluted with PPP to control the platelet count to 500,000/μl, and platelet aggregation by a stable analog of TXA2, U-46619 (a chemical name: 9,11-dideoxy-9α,11α-methanoepoxy-prostaglandin F2 α), was measured in accordance with the method of Bone and Cross (Journal of Physiology, vol.168, pp.178-195, 1963).
That is, changes in the light transmittance of PRP by U-46619 (10^-6 […]) was measured using NBS Hematracer. The compound was added 2 minutes before the addition of U-46619, and the IC50 value (50% inhibition concentration) was calculated from the inhibition ratio based on the maximum light transmittance by U-46619.

The subject of assay [2] is ileal contraction by LTD4. As to the kind of experiment: Inhibition of ileal contraction by LTD4 in guinea pig (Test (2)). Details: species or system guinea pig (male Hartley). Conditions: guinea pig ileum, LTD4 10^-9 M; compound incubation 20 minutes. As for the experimental part: (2) Test Method for the Inhibition of Ileal Contraction by LTD4 in Guinea Pig
A male Hartley guinea pig of 500 to 700 g in body weight was sacrificed by head blow. The ileum was set in a Magnus vessel containing 10 ml of Tyrode solution aerated with a 95% O2 +5% CO2 mixture gas at a tension of 1.0 g. The tension generated by the tissue was isometrically measured using a threton gage transducer. Ileal contraction reaction against LTD4 (10^-9 M) was measured in the absence of the compound and then in the presence of the test compound in varied concentrations. Incubation time of the compound was set to 20 minutes.

Assay [3] relates to U-46619 induced airway resistance increase. As to the kind of experiment: Inhibition of U-46619 induced airway resistance increase in guinea pig by oral administration (Test (3)). The format is in vivo, guinea pig (male Hartley). Conditions: 10 mg/kg oral, 1 hour before U-46619 (3 μg/kg i.v.). On the procedure: (3) Test Method for the Inhibition of U-46619 Induced Airway Resistance Increase in Guinea Pig by Oral Administration of Compounds
A male Hartley guinea pig (500 to 800 g) was anesthetized with urethane (1.2 g/kg, i.p.) and fixed on the back to insert a tracheal cannula. Spontaneous respiration was stopped with gallamine (1 mg/kg, i.v.) and artificial respiration was carried out at a rate of 60 strokes/min, volume 1 ml/100 g body weight/cycle. After total jugular intravenous administration of U-46619 (3 μg/kg), the increasing airway resistance was measured by a respiration function measuring apparatus (Model 6, Buxco Electronics Inc.). In this case, test compound was orally administered 1 hour before the administration of U-46619, as a dimethyl sulfoxide solution or as a methyl cellulose suspension.
The results were calculated as the inhibition ratio of airway resistance at the time of the administration of 10 mg/kg of the compound.

Assay [4] deals with LTD4-induced vascular permeability acceleration. As to the kind of experiment: Inhibition of LTD4-induced vascular permeability acceleration by oral administration (Test (4)). It counts as in vivo, guinea pig (male Hartley). Conditions: 10 mg/kg oral, 1 hour before LTD4 (5 ng/site intracutaneous); dimethyl sulfoxide solution (DMSO). As for the experimental part: (4) Test Method for the Inhibition of LTD4 -Induced Vascular Permeability Acceleration by Oral Administration of Compounds
A male Hartley guinea pig whose dorsal hair had been cut on the day before the test was subjected to intravenous administration of 1% Evans blue aqueous solution (1 ml/animal). Two minutes thereafter, LTD4 (5 ng/site) was administered inside the dorsal skin of the guinea pig, and the guinea pig was sacrificed by decapitation 30 minutes thereafter. The skin where intracutaneous injection of LTD4 was carried out was collected, and the pigment leaked into the skin was extracted. Amount of the leaked pigment was calculated by measuring its absorbance at 620 nm and used as the index of vascular permeability. The test compound was orally administered as a dimethyl sulfoxide solution 1 hour before the intracutaneous administration of LTD4. The results were calculated as the inhibition ratio at the time of the administration of 10 mg/kg of the compound.

Setting [5] is: dimethyl sulfoxide solution (DMSO).

As to `CC(C)(C)c1csc(COc2cccc(C(=O)Nc3cc(CCCS(=O)(=O)c4ccc(Cl)cc4)ccc3OCC(=O)O)c2)n1` [Example 13, 2-[3-[(4-tert-Butyl-2-thiazolyl)methoxy]benzoylamino]-4-[3-(4-chlorophenylsulfonyl)propyl]phenoxyacetic acid], the figures for the IC50 in assay [1] and in assay [2] were 55 nM and 0.45 nM, respectively.
On the same counts, the results for `O=C(O)CNC(=O)COc1ccc(CCCS(=O)(=O)c2ccc(Cl)cc2)cc1NC(=O)c1cccc(OCc2nc3ccccc3s2)c1` [Example 106, N-[[2-[3-(2-Benzothiazolylmethoxy)benzoylamino]-4-[3-(4-chlorophenylsulfonyl)propyl]phenoxy]acetyl]glycine] are 1200 nM and 0.92 nM.
As to `O=C(O)COc1ccc(CCCS(=O)(=O)c2ccc(Cl)cc2)cc1NC(=O)c1cccc(OCc2nc(C3CCC3)cs2)c1` [Example 31, 4-[3-(4-Chlorophenylsulfonyl)propyl]-2-[3-[(4-cyclobutyl-2-thiazolyl)methoxy]benzoylamino]phenoxyacetic acid], the results for the concentration for half-maximal inhibition (IC50) in assay [1] and in assay [2] were 130 nM and 0.28 nM, respectively. Besides, in assay [3] (setting [5]), the “Test (3) Inhibition ratio” value is reported as 72%. In addition, the “Test (4) Inhibition ratio” value in assay [4] is reported as 40%.
Turning to `CC(C)(C)c1csc(CSc2cccc(C(=O)Nc3cc(CCCS(=O)(=O)c4ccc(Cl)cc4)ccc3OCC(=O)O)c2)n1` [Example 27, 2-[3-[(4-tert-Butyl-2-thiazolyl)methylthio]benzoylamino]-4-[3-(4-chlorophenylsulfonyl)propyl]phenoxyacetic acid], the values for the IC50 in assay [1] and in assay [2] were 210 nM and 0.67 nM, respectively.
On to `O=C(O)COc1ccc(CCCS(=O)(=O)c2ccc(Cl)cc2)cc1NC(=O)c1cccc(OCc2ccc3ccccc3n2)c1` [Comparative compound], for which the “Test (3) Inhibition ratio” value was 27% in assay [3] (setting [5]) and 21% in assay [3] (methyl cellulose suspension (MC)). Also, the “Test (4) Inhibition ratio” value in assay [4] is recorded as 35%.
Consider `CS(=O)(=O)NC(=O)COc1ccc(CCCS(=O)(=O)c2ccc(Cl)cc2)cc1NC(=O)c1cccc(OCc2nc3ccccc3s2)c1` [Example 107, 2-[2-[3-(2-benzothiazolylmethoxy)benzoylamino]-4-[3-(4-chlorophenylsulfonyl)propyl]phenoxy]-N-(methanesulfonyl)acetamide 0.5 hydrate], for which the IC50 worked out at 670 nM in assay [1] and 3.7 nM in assay [2].
On the same counts, the results for `CC(C)(C)c1csc(COc2cccc(C(=O)Nc3cc(CCCS(=O)(=O)c4ccc(Cl)cc4)ccc3OCc3nnn[nH]3)c2)n1` [Example 39, 3-[(4-tert-Butyl-2-thiazolyl)methoxy]-5'-[3-(4-chlorophenylsulfonyl)propyl]-2'-(1H-tetrazol-5-ylmethoxy)benzanilide] are 220 nM and 0.57 nM.
On the same counts, the results for `Cc1oc(=O)oc1COC(=O)COc1ccc(CCCS(=O)(=O)c2ccc(Cl)cc2)cc1NC(=O)c1cccc(OCc2nc(C(C)(C)C)cs2)c1` [Example 42, (5-methyl-2-oxo-1,3-dioxol-4-yl)methyl=2-[3-[(4-tert-butyl-2-thiazolyl)methoxy]benzoylamino]-4-[3-(4-chlorophenylsulfonyl)propyl]phenoxyacetic acid] are 420 nM and 0.93 nM.
On the same counts, the results for `O=C(O)COc1ccc(CCCS(=O)(=O)c2ccc(Cl)cc2)cc1NC(=O)c1cccc(OCc2nc(C3CC3)cs2)c1` [Example 26, 4-[3-(4-Chlorophenylsulfonyl)propyl]-2-[3-[(4-cyclopropyl-2-thiazolyl)methoxy]benzoylamino]phenoxyacetic acid] are 79 nM and 0.54 nM.
`O=C(O)COc1ccc(CCCS(=O)(=O)c2ccc(Cl)cc2)cc1NC(=O)c1cccc(OCc2nc(C3CCCCC3)cs2)c1` [Example 29, 4-[3-(4-Chlorophenylsulfonyl)propyl]-2-[3-[(4-cyclohexyl-2-thiazolyl)methoxy]benzoylamino]phenoxyacetic acid]: the half-maximal inhibitory concentration (IC50) in assay [1] worked out at 110 nM; in assay [2] it was 0.61 nM.
For `O=C(Nc1cc(CCCS(=O)(=O)c2ccc(Cl)cc2)ccc1OCc1nnn[nH]1)c1cccc(OCc2nc(C3CCC3)cs2)c1` [Example 74, 5'-[3-(4-Chlorophenylsulfonyl)propyl]-3-[(4-cyclobutyl-2-thiazolyl)methoxy]-2'-(1H-tetrazol-5-ylmethoxy)benzanilide], the results for the IC50 in assay [1] and in assay [2] were 540 nM and 0.24 nM, respectively.
On the same counts, the results for `CC(C)(C)c1csc(CCc2cccc(C(=O)Nc3cc(CCCS(=O)(=O)c4ccc(Cl)cc4)ccc3OCC(=O)O)c2)n1` [Example 28, 2-[3-[2-(4-tert-Butyl-2-thiazolyl)ethyl]benzoylamino]-4-[3-(4-chlorophenylsulfonyl)propyl]phenoxyacetic acid] are 74 nM and 0.98 nM.
On the same counts, the results for `CCOC(=O)COc1ccc(CCCS(=O)(=O)c2ccc(Cl)cc2)cc1NC(=O)c1cccc(OCc2nc(C(C)(C)C)cs2)c1` [Example 6, Ethyl 2-[3-[(4-tert-butyl-2-thiazolyl)methoxy]benzoylamino]-4-[3-(4-chlorophenylsulfonyl)propyl]phenoxyacetate] are 450 nM and 0.81 nM.
On the same counts, the results for `O=C(Nc1cc(CCCS(=O)(=O)c2ccc(Cl)cc2)ccc1OCc1nnn[nH]1)c1cccc(OCc2nc3ccccc3s2)c1` [Example 111, 3-(2-benzothiazolylmethoxy)-5'-[3-(4-chlorophenylsulfonyl)propyl]-2'-(1H-tetrazol-5-ylmethoxy)benzanilide] are 380 nM and 0.26 nM.
With `CCOC(=O)COc1ccc(CCCS(=O)(=O)c2ccc(Cl)cc2)cc1NC(=O)c1cccc(OCc2nc(C3CC3)cs2)c1` [Example 15, Ethyl 4-[3-(4-chlorophenylsulfonyl)propyl]-2-[3-[(4-cyclopropyl-2-thiazolyl]methoxy]benzoylamino]phenoxyacetate], the figures for the half-maximal inhibitory concentration (IC50) in assay [1] and in assay [2] were 63 nM and 0.85 nM, respectively.
On the same counts, the results for `CC(C)(C)c1csc(COc2cccc(C(=O)Nc3cc(CCCS(=O)(=O)c4ccc(Cl)cc4)ccc3OC(F)C(=O)O)c2)n1` (centres unmarked) [Example 79, 2-[2-[3-[(4-tert-butyl-2-thiazolyl)methoxy]benzoylamino]-4-[3-(4-chlorophenylsulfonyl)propyl]phenoxy]-2-fluoroacetic acid hydrate] are 890 nM and 4.2 nM.

Broadly, the IC50 is the concentration that inhibits the measured activity by half. Read a high IC50 as a need for much substance.

(Values after patent US5981559A, “Azole derivative with leukotriene (LTs) antagonizing activity and thromboxane (TX) A2 antagonizing activity” (Yamanouchi Pharmaceutical Co., Ltd., priority 1994, dated 1999).)
